Two compounds from PubChem BioAssay (NCI) can be followed below.

Test in all cases: growth of human tumour cells (NCI), 48 h
For assay [1], the system named is SW-620 colon.
In assay [2] the test system is A498 renal.
The test system of assay [3] is UACC-257 melanoma.
Assay [4] concerns SR leukemia.
Assay [5] deals with RPMI-8226 leukemia.
Assay [6] deals with EKVX NSCLC.
Assay [7] has as its system PC-3 prostate.
The subject of assay [8] is HCT-116 colon.
For assay [9], the system named is KM12 colon.
In assay [10] the test system is HCT-15 colon.
Assay [11] has as its system HOP-92 NSCLC.
The test system of assay [12] is M19-MEL melanoma.
The subject of assay [13] is MOLT-4 leukemia.
Assay [14] has as its system CAKI-1 renal.
The test system of assay [15] is MDA-MB-231 breast.
Assay [16] concerns CCRF-CEM leukemia.
For assay [17], the system named is HL-60(TB) leukemia.
Assay [18] concerns TK-10 renal.
Assay [19] has as its system K-562 leukemia.
Assay [20] deals with SK-MEL-28 melanoma.

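Assay format: 96-well plates, 48-hour exposure. Definition used: TGI = concentration required for complete inhibition of growth.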

For the compound `C/C(=N\N)C(CN(C)C)C(c1ccccc1)c1c(O)c2ccccc2oc1=O` (stereo not given), the TGI in [1], in assay [2], in assay [3], in assay [4], in [5] and in [6] was greater than 100 µM each time. Further, the TGI in assay [7], in assay [8], in [9], in assay [10], in assay [11] and in [12] was greater than 100 µM in each case. Further, the TGI in assay [13], in [14], in assay [15], in assay [16], in assay [17] and in assay [18] was greater than 100 µM each time. Further, the TGI in assay [19] and in assay [20] was greater than 100 µM throughout.
Regarding `Cc1c2ccncc2cc2c1sc1ccncc12`, the TGI in assay [1] is 16.7 µM; in assay [2], 13.8 µM; in assay [3], 11 µM; in [4], 1.67 µM; in assay [5] it was 7.49 µM; in [6] it was 15.5 µM. For the same compound, the TGI is 10.5 µM in [7]; 13.1 µM in [8]; 17.1 µM in [9]; 14.4 µM in assay [10]; 46.9 µM in assay [11]; 16.6 µM in assay [12]. For the same compound, the TGI in assay [13] came out at 2.45 µM; in [14] it was 12.5 µM; in assay [15] it was 21.9 µM; in [16], 5.32 µM; in [17], 6.79 µM; in assay [18], 36 µM. For the same compound, the TGI in [19] was 21.5 µM; in assay [20], 14.1 µM.
